# Tests used:
# [1] = Stability of octreotide in injectable formulations at room temperature by HPLC (Example 12)
# Experimental: Injectable formulations of octreotide were prepared by dispersing octreotide in polymer solution in an appropriate solvent. […] The mixture was thoroughly mixed until a uniform suspension or solution was obtained. Six injectable formulations were prepared as shown below.
# The stability of octreotide in the above injectable formulations at room temperature was monitored by HPLC and the results are shown in the table below.
# [2] = Stability of octreotide in injectable formulations at room temperature by HPLC (Example 13); assay type: physicochemical; details: PLGA/NMP vehicle, after 24 h
# Experimental: The injectable polymer solutions were prepared by dispersing octreotide phytate or acetate or citrate. […] Injectable formulations were prepared as shown below.
# It appears that both salt forms of octreotide and the solvent affect the stability of octreotide. In terms of the stability of octreotide, mPEG is preferred than NMP and phytate complex form of octreotide is preferred than acetate and citrate salt of octreotide.
# [3] = Release of octreotide in vivo in rats by implant retrieval (Example 14); design: species or system Sprague-Dawley male rats; details: PLGA/NMP vehicle, after 24 h
# Experimental: Poly(DL-lactide-co-glycolide) (PLGA) was dissolved in N-methyl-2-pyrrolidone (NMP), or methoxypolyethylene glycohol (mPEG) to give a 40% solution by weight. The injectable formulations were prepared by dispersing octreotide phytate or acetate. The mixture was thoroughly mixed until a uniform suspension or solution was obtained. These formulations of octreotide (roughly about 100 uL) were administered subcutaneously in the back of the Sprague-Dawley male rats. The release of octreotide was determined by implant retrieval at predefined time intervals (30 min for group G and 24 h for groups A through F) after ministration and analysis of the octreotide remaining in the implant.
Structure (SMILES),"octreotide degraded or acylated ([1]; PLGA solution in NMP, room temperature)",Stability of octreotide (degraded or reacted) ([1]; after three days at room temperature),degradation/reaction of octreotide in vitro [2],degradation/reaction of octreotide in vivo [3]
C[C@@H](O)[C@@H]1NC(=O)[C@H](CCCCN)NC(=O)[C@@H](Cc2c[nH]c3ccccc23)NC(=O)[C@H](Cc2ccccc2)NC(=O)[C@@H](NC(=O)[C@H](N)Cc2ccccc2)CSSC[C@@H](C(=O)N[C@H](CO)[C@@H](C)O)NC1=O [octreotide acetate],~100%,significant amount of the octreotide was degraded or reacted,–,–
C[C@@H](O)[C@@H]1NC(=O)[C@H](CCCCN)NC(=O)[C@@H](Cc2c[nH]c3ccccc23)NC(=O)[C@H](Cc2ccccc2)NC(=O)[C@@H](NC(=O)[C@H](N)Cc2ccccc2)CSSC[C@@H](C(=O)N[C@H](CO)[C@@H](C)O)NC1=O [octreotide],–,–,85%,30%

# Reference: patent US7964219B2, “Pharmaceutical compositions for controlled release delivery of biologically active compounds” (QPS, LLC, priority 2004, dated 2011)
